Source: patent US20070117743A1, “New antitumoral compounds” (priority 2003, published 2007)
Where two headings read alike, the source gives them in different places.

Assays:
Format in all cases: cell-based, human
A-549 = test: SRB colorimetric assay of cell growth and viability, A-549; details: 48 hours exposure; for GI50: read-out: GI50 A-549; for CC50: read-out: LC50 A-549
SK-MEL-28 = test: SRB colorimetric assay of cell growth and viability, SK-MEL-28; details: 48 hours exposure; for CC50: read-out: LC50 MEL-28
HT-29 = test: SRB colorimetric assay of cell growth and viability, HT-29; details: 48 hours exposure; for GI50: read-out: GI50 HT-29; for CC50: read-out: LC50 HT-29
LoVo = test: SRB colorimetric assay of cell growth and viability, LoVo; details: 48 hours exposure; for CC50: read-out: LC50 LOVO
LoVo-Dox = test: SRB colorimetric assay of cell growth and viability, LoVo-Dox; details: 48 hours exposure; for CC50: read-out: LC50 LOVO-DOX
Procedure, shortened: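 Cells in RPMI 1640 with 10% FBS were seeded at 5×10^3 per well and left 18 hours drug-free before compounds (10 to 10^−8 μg/mL in DMSO:EtOH:PBS 0.5:0.5:99) were added for 48 hours. TCA-fixed cells were stained with SRB and read at 490 nm; triplicate wells gave GI, TGI and LC.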

DU-145 = test: SRB colorimetric assay of cell growth and viability, DU-145; details: 48 hours exposure
LNCaP = test: SRB colorimetric assay of cell growth and viability, LNCaP; details: 48 hours exposure; for GI50: read-out: GI50 LN-caP; for CC50: read-out: LC50 LN-caP
SK-BR-3 = test: SRB colorimetric assay of cell growth and viability, SK-BR-3; details: 48 hours exposure
IGROV-1 = test: SRB colorimetric assay of cell growth and viability, IGROV-1; details: 48 hours exposure
IGROV-ET = test: SRB colorimetric assay of cell growth and viability, IGROV-ET; details: 48 hours exposure; for CC50: read-out: LC50 IGROV-ET
HeLa = test: SRB colorimetric assay of cell growth and viability, HeLa; details: 48 hours exposure; for CC50: read-out: LC50 HELA
HeLa-APL = test: SRB colorimetric assay of cell growth and viability, HeLa-APL; details: 48 hours exposure; for CC50: read-out: LC50 HELA-APL
K-562 = test: SRB colorimetric assay of cell growth and viability, K-562; details: 48 hours exposure; for CC50: read-out: LC50 K-562
PANC-1 = test: SRB colorimetric assay of cell growth and viability, PANC-1; details: 48 hours exposure; for CC50: read-out: LC50 PANC-1

C/C=C1\NC(=O)[C@H](Cc2ccccc2)NC(=O)[C@@H](C(C)C)NC(=O)[C@@H]([C@@H](C)CC)NC(=O)[C@H](NC(=O)[C@H](NC(=O)[C@H](CCCNC(=O)CCCC[C@@H]2SC[C@@H]3NC(=O)N[C@@H]32)NC(=O)[C@H]2CCCN2C(=O)[C@H](NC(=O)[C@@H](NC(=O)[C@@H](NC(=O)[C@H](NC(=O)CCCC(C)C)C(C)C)[C@@H](C)O)C(C)C)C(C)C)[C@@H](C)CC)[C@@H](C)OC(=O)[C@H](C(C)C)NC1=O [Compound 99, [Orn(Biot)^8]-Kahalalide F]
TGI A-549 (A-549; A-549): 2.05E−06 Molar
GI50 (A-549; A-549): 886 nM
CC50 (A-549; A-549): 4760 nM
GI50 (SK-MEL-28; SRB): 839 nM
TGI MEL-28 (SK-MEL-28; SRB): 1.73E−06 Molar
CC50 (SK-MEL-28; SRB): 3540 nM
TGI HT-29 (HT-29; HT-29): 2.41E−07 Molar
GI50 (HT-29; HT-29): 124 nM
CC50 (HT-29; HT-29): 467 nM
GI50 (LoVo; LOVO): 129 nM
TGI LOVO (LoVo; LOVO): 2.53E−07 Molar
CC50 (LoVo; LOVO): 495 nM
GI50 (LoVo-Dox; LOVO-DOX): 139 nM
TGI LOVO-DOX (LoVo-Dox; LOVO-DOX): 3.10E−07 Molar
CC50 (LoVo-Dox; LOVO-DOX): 3930 nM
GI50 (DU-145; SRB): 757 nM
LC50 (concentration causing 50% net cell kill) (DU-145; SRB): 3260 nM
TGI DU-145 (DU-145; SRB): 1.57E−06 Molar
TGI LN-caP (LNCaP; SRB): 1.99E−06 Molar
GI50 (LNCaP; SRB): 1020 nM
CC50 (LNCaP; SRB): 3890 nM
GI50 (SK-BR-3; SRB): 140 nM
LC50 (SK-BR-3; SRB): 575 nM
TGI SK-BR-3 (SK-BR-3; SRB): 2.84E−07 Molar
GI50 (IGROV-1; SRB): 268 nM
LC50 (concentration causing 50% net cell killing) (IGROV-1; SRB): 2690 nM
TGI IGROV (IGROV-1; SRB): 8.98E−07 Molar
GI50 (IGROV-ET; SRB): 874 nM
TGI IGROV-ET (IGROV-ET; SRB): 1.88E−06 Molar
CC50 (IGROV-ET; SRB): 4040 nM
GI50 (HeLa; HELA): 329 nM
TGI HELA (HeLa; HELA): 1.19E−06 Molar
CC50 (HeLa; HELA): 3510 nM
GI50 (HeLa-APL; HELA-APL): 951 nM
TGI HELA-APL (HeLa-APL; HELA-APL): 2.10E−06 Molar
CC50 (HeLa-APL; HELA-APL): 4650 nM
GI50 (K-562; K-562): 3300 nM
TGI K-562 (K-562; K-562): 5.87E−06 Molar
CC50 (K-562; K-562): 5870 nM
GI50 (PANC-1; PANC-1): 1500 nM
TGI PANC-1 (PANC-1; PANC-1): 3.50E−06 Molar
CC50 (PANC-1; PANC-1): 5870 nM

[(4RS)-MeHex^14]-KF [Compound 17]
TGI A-549 (A-549): 7.51E−07 Molar
GI50 (A-549): 240 nM
CC50 (A-549): 2890 nM
GI50 (SK-MEL-28): 1300 nM
TGI MEL-28 (SK-MEL-28): 2.54E−06 Molar
CC50 (SK-MEL-28): 4960 nM
TGI HT-29 (HT-29): 2.84E−07 Molar
GI50 (HT-29): 147 nM
CC50 (HT-29): 550 nM
GI50 (LoVo): 141 nM
TGI LOVO (LoVo): 2.67E−07 Molar
CC50 (LoVo): 503 nM
GI50 (LoVo-Dox): 180 nM
TGI LOVO-DOX (LoVo-Dox): 3.66E−07 Molar
CC50 (LoVo-Dox): 1270 nM
GI50 (DU-145): 252 nM
LC50 (concentration causing 50% net cell kill) (DU-145): 2650 nM
TGI DU-145 (DU-145): 8.39E−07 Molar
TGI LN-caP (LNCaP): 2.10E−06 Molar
GI50 (LNCaP): 934 nM
CC50 (LNCaP): 4750 nM
GI50 (SK-BR-3): 162 nM
LC50 (SK-BR-3): 606 nM
TGI SK-BR-3 (SK-BR-3): 3.14E−07 Molar
GI50 (IGROV-1): 185 nM
LC50 (concentration causing 50% net cell killing) (IGROV-1): 1490 nM
TGI IGROV (IGROV-1): 3.96E−07 Molar
GI50 (IGROV-ET): 209 nM
TGI IGROV-ET (IGROV-ET): 4.24E−07 Molar
CC50 (IGROV-ET): 1840 nM
GI50 (HeLa): 744 nM
TGI HELA (HeLa): 1.71E−06 Molar
CC50 (HeLa): 3920 nM
GI50 (HeLa-APL): 758 nM
TGI HELA-APL (HeLa-APL): 1.86E−06 Molar
CC50 (HeLa-APL): 4590 nM
GI50 (K-562): 2370 nM
TGI K-562 (K-562): 4.07E−06 Molar
CC50 (K-562): ≥ 6770 nM
GI50 (PANC-1): 3820 nM
TGI PANC-1 (PANC-1): 6.77E−06 Molar
CC50 (PANC-1): ≥ 6770 nM

[(c/t)-4-Me-cHexa^14]-KF [Compound 14]
TGI A-549 (A-549): 2.15E−06 Molar
GI50 (A-549): 933 nM
CC50 (A-549): 4950 nM
GI50 (SK-MEL-28): 886 nM
TGI MEL-28 (SK-MEL-28): 1.89E−06 Molar
CC50 (SK-MEL-28): 4010 nM
TGI HT-29 (HT-29): 4.22E−07 Molar
GI50 (HT-29): 189 nM
CC50 (HT-29): 1830 nM
GI50 (LoVo): 99.3 nM
TGI LOVO (LoVo): 2.34E−07 Molar
CC50 (LoVo): 550 nM
GI50 (LoVo-Dox): 144 nM
TGI LOVO-DOX (LoVo-Dox): 2.88E−07 Molar
CC50 (LoVo-Dox): 576 nM
GI50 (DU-145): 612 nM
LC50 (concentration causing 50% net cell kill) (DU-145): 3360 nM
TGI DU-145 (DU-145): 1.48E−06 Molar
TGI LN-caP (LNCaP): 2.87E−06 Molar
GI50 (LNCaP): 1340 nM
CC50 (LNCaP): 6110 nM
GI50 (SK-BR-3): 152 nM
LC50 (SK-BR-3): 657 nM
TGI SK-BR-3 (SK-BR-3): 3.17E−07 Molar
GI50 (IGROV-1): 382 nM
LC50 (concentration causing 50% net cell killing) (IGROV-1): 3470 nM
TGI IGROV (IGROV-1): 1.22E−06 Molar
GI50 (IGROV-ET): 846 nM
TGI IGROV-ET (IGROV-ET): 1.94E−06 Molar
CC50 (IGROV-ET): 4470 nM
GI50 (HeLa): 779 nM
TGI HELA (HeLa): 1.84E−06 Molar
CC50 (HeLa): 4370 nM
GI50 (HeLa-APL): 611 nM
TGI HELA-APL (HeLa-APL): 1.72E−06 Molar
CC50 (HeLa-APL): 4560 nM
GI50 (K-562): 2020 nM
TGI K-562 (K-562): 3.58E−06 Molar
CC50 (K-562): 6320 nM
GI50 (PANC-1): 2010 nM
TGI PANC-1 (PANC-1): 6.71E−06 Molar
CC50 (PANC-1): 6710 nM

[D,L-Ser^2]-KF [Compound 64]
TGI A-549 (A-549; SRB): 6.75E−06 Molar
GI50 (A-549; SRB): ≥ 6750 nM
CC50 (A-549; SRB): ≥ 6750 nM
GI50 (SK-MEL-28): ≥ 6750 nM
TGI MEL-28 (SK-MEL-28): 6.75E−06 Molar
CC50 (SK-MEL-28): ≥ 6750 nM
TGI HT-29 (HT-29; SRB): 6.75E−06 Molar
GI50 (HT-29; SRB): ≥ 6750 nM
CC50 (HT-29; SRB): ≥ 6750 nM
GI50 (LoVo; SRB): ≥ 6750 nM
TGI LOVO (LoVo; SRB): 6.75E−06 Molar
CC50 (LoVo; SRB): ≥ 6750 nM
GI50 (LoVo-Dox; SRB): ≥ 6750 nM
TGI LOVO-DOX (LoVo-Dox; SRB): 6.75E−06 Molar
CC50 (LoVo-Dox; SRB): ≥ 6750 nM
GI50 (DU-145): ≥ 6750 nM
LC50 (concentration causing 50% net cell kill) (DU-145): ≥ 6750 nM
TGI DU-145 (DU-145): 6.75E−06 Molar
TGI LN-caP (LNCaP): 3.99E−06 Molar
GI50 (LNCaP): 1800 nM
CC50 (LNCaP): ≥ 6750 nM
GI50 (SK-BR-3): ≥ 6750 nM
LC50 (SK-BR-3): ≥ 6750 nM
TGI SK-BR-3 (SK-BR-3): 6.75E−06 Molar
GI50 (IGROV-1): ≥ 6750 nM
LC50 (concentration causing 50% net cell killing) (IGROV-1): ≥ 6750 nM
TGI IGROV (IGROV-1): 6.75E−06 Molar
GI50 (IGROV-ET): ≥ 6750 nM
TGI IGROV-ET (IGROV-ET): 6.75E−06 Molar
CC50 (IGROV-ET): ≥ 6750 nM
GI50 (HeLa; SRB): ≥ 6750 nM
TGI HELA (HeLa; SRB): 6.75E−06 Molar
CC50 (HeLa; SRB): ≥ 6750 nM
GI50 (HeLa-APL; SRB): ≥ 6750 nM
TGI HELA-APL (HeLa-APL; SRB): 6.75E−06 Molar
CC50 (HeLa-APL; SRB): ≥ 6750 nM
GI50 (K-562; SRB): ≥ 6750 nM
TGI K-562 (K-562; SRB): 6.75E−06 Molar
CC50 (K-562; SRB): ≥ 6750 nM
GI50 (PANC-1; SRB): ≥ 6750 nM
TGI PANC-1 (PANC-1; SRB): 6.75E−06 Molar
CC50 (PANC-1; SRB): ≥ 6750 nM
